Data on one molecule can be found in patent US20250163057A1, “DCN-1 MODULATING COMPOUNDS AND METHODS OF USE THEREOF” (Cellarity, Inc., priority 2023, published 2025).

Data set [1] is described as follows: Preliminary pharmacokinetic studies (serum exposure). The data set is classed as in vivo, wild-type mice.
The subject of data set [2] is HBG1 mRNA and HbF protein in bone marrow cells. Nature of the data set: Induction of fetal hemoglobin by hydroxyurea and I-73 in human CD34+ cell reconstituted immunodeficient mice, with analysis of synergistic effect. The data set is classed as in vivo, NBSGW mice engrafted with human CD34+ cells. As to the method: The model employed for assessment of induction of fetal hemoglobin by I-73 and hydroxyurea involved the use of human stem cell-reconstituted immunodeficient mice. Specifically, three hundred thousand human CD34-positive cells from G-CSF-mobilized human peripheral blood […] (PBMCs) were injected into the tail veins of NOD.Cg-KitW-41J Tyr+Prkdcscid Il2rgtm1Wjl/ThomJ (NBSGW) mice (JAX Strain No. 026622) on day 0. Twelve weeks later, mice were checked for human cell engraftment by sampling PBMCs from blood taken from the tail vein and staining for expression of murine or human CD45 by flow cytometry. After removing from the study those mice having greater than 10% human cells or less than 1% human cells in their peripheral blood, the remaining mice were randomized into treatment groups based on the human cell percentage. Thirteen weeks post engraftment, treatment was initiated with either hydroxyurea, I-73, or a combination of both compounds. Hydroxyurea was formulated in PBS (pH 7.4) and I-73 was formulated in 5% Cremophor RH 40/20% hydroxypropyl-β-cyclodextrin (Crem-CD) daily. Mice received either PBS or hydroxyurea each morning and I-73 or Crem-CD each afternoon by oral gavage. After twenty days of daily treatment, the mice were euthanized and their bone marrow (femurs, tibia and critae) were individually collected for subsequent analysis.
Bone marrow cell pellets (total 500K cells) were lysed in 20 μL of RLT (QIAGEN, 79216) with 1×β-mercaptoethanol (Gibco, 21985-023) and H2O followed by hybridizations. Hybridizations were done in a total volume of 15 μL [3 μL of RNA lysate added to master mix of 12 μL probe A/B (purchased from IDT), capture probe/reporter probes (NanoString™, XT TagSet-24, 121000602), proteinase K (Fisher Scientific, E00491) and H2O suspended in hybridization buffer]. Samples were hybridized at 65° C. for 22 hr. Following hybridization, the tripartide complexes were purified, immobilized by nCounter Prep Station and imaged by Digital Analyzer (nCounter MAX/FLEX Analysis System), to generate digital counts of barcodes corresponding to each target in the multiplexed reaction. Labeled barcodes obtained from unamplified extracts were counted at 555 images or field of view (FOV). The barcode counts for each sample were recorded in Reporter Code Count (RCC) files that are imported into nSolver analysis software (provided with CodeSet by NS) for quality control evaluation.
To assess levels of fetal hemoglobin by AlphaLISA, cells (200 k bone marrow cells/well) were lysed by resuspending pellets in 200 μL of lysis buffer plus protease inhibitor cocktail (100×), mixed well and incubating at room temperature for 30 minutes on the plate shaker @300 RPMs. Samples were then diluted 1:10 in a new 96-well round bottom plate by taking 10 uL of lysate and adding 90 μL of AlphaLISA immunoassay buffer. To create the “reaction plate”, 20 μL of Acceptor Beads (50 ug/mL final concentration) was added to each well using a multi-channel pipet. 10 uL of diluted cell lysate was added to the wells and mixed well. 20 μL of AlphaLISA immunoassay buffer was added to each well. Biotinylated antibody (final concentration) was then added to each well. The reaction plate on then placed on a plate shaker at 300 rpm for one hour to incubate at room temperature. After the first incubation was complete, 50 μL of Donor Beads ([…] final concentration) was added to each well and mixed well, keeping the plate in the dark. The covered plate was placed on a shaker at 350 rpm for 30 minutes to incubate at room temperature. After incubation, all 100 uL in each to an AlphaPlate in the dark. Plates were read on a VictorNIVO using the “Alpha 96 Well” setting. Alpha reading was programmed as the default setting with emission at 700 ms and 575/110n. […]

Consider `CCN1C(=O)[C@@H](NC(=O)c2cccc(C(F)(F)F)c2)[C@@H](c2ccc(F)cc2)c2c([C@@H](C)NC#N)nn(-c3ccccc3)c21` [Compound I-73, N-((4S,5S)-3-((R)-1-cyanamidoethyl)-7-ethyl-4-(4-fluorophenyl)-6-oxo-1-phenyl-4,5,6,7-tetrahydro-1H-pyrazolo[3,4-b]pyridin-5-yl)-3-(trifluoromethyl)benzamide], for which, in data set [1] (dosing at 25 and 100 mg/kg), the “serum concentrations relative to that required to inhibit DCN-1” value is on record as “equivalent to or greater than that required to inhibit DCN-1”. In data set [1] (wild-type mice), the “in vivo serum exposure levels” value is listed as “predicted to be sufficient for fetal hemoglobin induction”. Moreover, the “average increase of HbF % over vehicle” value in data set [2] (I-73 25 mg/kg alone, WLS ANOVA estimate) is listed as 1.11. For the same molecule, the “percentage of HbF protein by HPLC in GlyA-positive bone marrow cells” value in data set [2] (compared with vehicle treatment group, FIG. 7) is given as “significant increase”. Further, the “percentage of bone marrow cells expressing human CD45” value in data set [2] (in vivo) is given as “did not alter”. Also, in data set [2] (treatment alone), the “HbF level on a per erythroid progenitor (GlyA-positive) cell basis by AlphaLISA” value is “induced increased levels of HbF”.
